Assay results: patent publication US6737383B1, “Herbicidal oxadiazolidines” (priority 1999, dated 2004)

Tests used:
bedstraw = assay: Test B pre/postemergence bedstraw; format: in vivo, Galium aparine
Method in brief: (§1)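 Herbicidal effect was estimated by eye on a ten-point control scale after plants spent twelve to sixteen days in a greenhouse following soil or foliar treatment. Foliar sprays targeted plants at one to four leaves; all doses were formulated in a non-phytotoxic solvent with surfactant.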

blackgrass = assay: Test B pre/postemergence blackgrass; format: in vivo, Alopecurus myosuroides
Method in brief: as §1

surinam grass = assay: Test B pre/postemergence surinam grass; format: in vivo, Brachiaria decumbens
Method in brief: as §1

corn = assay: Test B pre/postemergence corn; format: in vivo, Zea mays
Method in brief: as §1

giant foxtail = assay: Test B pre/postemergence giant foxtail; format: in vivo, Setaria faberii
Method in brief: as §1

morningglory = assay: Test B pre/postemergence morningglory; format: in vivo, Ipomoea hederacea
Method in brief: as §1

pigweed = assay: Test B pre/postemergence pigweed; format: in vivo, Amaranthus retroflexus
Method in brief: as §1

rape = assay: Test B pre/postemergence rape; format: in vivo, Brassica napus
Method in brief: as §1

soybean = assay: Test B pre/postemergence soybean; format: in vivo, Glycine max
Method in brief: as §1

sugar beet = assay: Test B pre/postemergence sugar beet; format: in vivo, Beta vulgaris
Method in brief: as §1

velvetleaf = assay: Test B pre/postemergence velvetleaf; format: in vivo, Abutilon theophrasti
Method in brief: as §1

purple nutsedge = assay: Test B pre/postemergence purple nutsedge; format: in vivo, Cyperus rotundus; settings: Postemergence
Method in brief: as §1

rice = assay: Test B flood test rice; format: in vivo, Oryza sativa
Method in brief: (§2)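 Plants were grown to the 2-leaf stage before treatment with test chemical, then held in a greenhouse for twelve to sixteen days. Injury was visually rated against untreated controls on a 0–10 scale, where 0 is no effect and 10 is complete control.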

smallflower flatsedge = assay: Test B flood test smallflower flatsedge; format: in vivo, Cyperus difformis
Method in brief: as §2

duck salad = assay: Test B flood test duck salad; format: in vivo, Heteranthera limosa
Method in brief: as §2

bamyardgrass = assay: Test B flood test barnyardgrass; format: in vivo, Echinochloa crus-galli
Method in brief: as §2

[1] = Preemergence, Rate 62 g/ha, scale of 0 to 10 where 0 is no effect and 10 is complete control
[2] = Preemergence, Rate 250 g/ha, scale of 0 to 10 where 0 is no effect and 10 is complete control
[3] = Preemergence, Rate 500 g/ha, scale of 0 to 10 where 0 is no effect and 10 is complete control
[4] = Rate 62 g/ha, Postemergence, scale of 0 to 10 where 0 is no effect and 10 is complete control
[5] = Rate 125 g/ha, Postemergence, scale 0 to 10
[6] = Rate 125 g/ha, Preemergence, scale of 0 to 10 where 0 is no effect and 10 is complete control
[7] = Rate 500 g/ha, Postemergence, scale 0 to 10, 0 no effect, 10 complete control
[8] = Rate 62 g/ha, headed Pre-emergence (flood test species), scale 0 to 10 (0 no effect, 10 complete control)
[9] = Rate 125 g/ha, Pre-emergence, flood test species, scale 0 to 10 where 0 is no effect and 10 is complete control
[10] = Rate 250 g/ha, Pre-emergence, flood-test species, scale 0 to 10, 0 is no effect, 10 is complete control
[11] = Rate 500 g/ha, Pre-emergence, flood test species, scale 0 to 10 (0 no effect, 10 complete control)

With COCCOCn1c(=O)on(C(=O)N(c2ccc(F)cc2)C(C)C)c1=O [Compound 220] the “Bedstraw plant response rating” value (bedstraw; [1]) was 0, the “Bedstraw plant response rating” value (bedstraw; [2]) was 10 and the “Plant response rating, Bedstraw” value (bedstraw; [3]) was 10. The “Bedstraw plant response rating” value (bedstraw; [4]) was 6, the “Bedstraw plant response rating” value (bedstraw; [5]) was 8 and the “Bedstraw plant response rating” value (bedstraw; [6]) was 4. For the same molecule, the “Plant response rating (0 to 10; 0 is no effect, 10 is complete control), Bedstraw” value (bedstraw; Rate 250 g/ha, Postemergence) was 8, the “Bedstraw plant response rating” value (bedstraw; [7]) was 9 and the “Blackgrass plant response rating” value (blackgrass; [1]) was 8. For the same molecule, the “Blackgrass plant response rating” value (blackgrass; [2]) was 10, the “Plant response rating, Blackgrass” value (blackgrass; [3]) was 10 and the “Blackgrass plant response rating” value (blackgrass; [4]) was 5. The “Blackgrass plant response rating” value (blackgrass; [5]) was 7, the “Blackgrass plant response rating” value (blackgrass; [6]) was 9 and the “Plant response rating (0 to 10; 0 is no effect, 10 is complete control), Blackgrass” value (blackgrass; Rate 250 g/ha, Postemergence) was 8. The “Blackgrass plant response rating” value (blackgrass; [7]) was 8, the “B. signalgrass plant response rating” value (surinam grass; [1]) was 7 and the “B. signalgrass plant response rating” value (surinam grass; Preemergence, Rate 250 g/ha, scale 0 to 10, 0 is no effect, 10 is complete control) was 8. The “Plant response rating, B. signalgrass” value (surinam grass; [3]) was 8, the “B. signalgrass plant response rating” value (surinam grass; [4]) was 2 and the “B. signalgrass plant response rating” value (surinam grass; Rate 125 g/ha, Postemergence, scale 0 (no effect) to 10 (complete control)) was 7. For the same molecule, the “B. signalgrass plant response rating” value (surinam grass; [6]) was 7, the “Plant response rating (0 to 10; 0 is no effect, 10 is complete control), B. signalgrass” value (surinam grass; Rate 250 g/ha, Postemergence) was 8 and the “B. signalgrass plant response rating” value (surinam grass; [7]) was 8. The “Corn plant response rating” value (corn; [1]) was 0, the “Corn plant response rating” value (corn; [2]) was 5 and the “Plant response rating, Corn” value (corn; [3]) was 7. The “Corn plant response rating” value (corn; [4]) was 0, the “Corn plant response rating” value (corn; [5]) was 2 and the “Corn plant response rating” value (corn; [6]) was 3. The “Plant response rating (0 to 10; 0 is no effect, 10 is complete control), Corn” value (corn; Rate 250 g/ha, Postemergence) was 6, the “Corn plant response rating” value (corn; [7]) was 6 and the “Giant foxtail plant response rating” value (giant foxtail; [1]) was 9. For the same molecule, the “Giant foxtail plant response rating” value (giant foxtail; [2]) was 10, the “Plant response rating, Giant foxtail” value (giant foxtail; [3]) was 10 and the “Giant foxtail plant response rating” value (giant foxtail; [4]) was 5. For the same molecule, the “Giant foxtail plant response rating” value (giant foxtail; [5]) was 6, the “Giant foxtail plant response rating” value (giant foxtail; [6]) was 9 and the “Plant response rating (0 to 10; 0 is no effect, 10 is complete control), Giant foxtail” value (giant foxtail; Rate 250 g/ha, Postemergence) was 8. The “Giant foxtail plant response rating” value (giant foxtail; [7]) was 8, the “Morningglory plant response rating” value (morningglory; [1]) was 0 and the “Morningglory plant response rating” value (morningglory; [2]) was 1. For the same molecule, the “Plant response rating, Morningglory” value (morningglory; [3]) was 6, the “Morningglory plant response rating” value (morningglory; [4]) was 5 and the “Morningglory plant response rating” value (morningglory; [5]) was 5. For the same molecule, the “Morningglory plant response rating” value (morningglory; [6]) was 0, the “Plant response rating (0 to 10; 0 is no effect, 10 is complete control), Morningglory” value (morningglory; Rate 250 g/ha, Postemergence) was 8 and the “Morningglory plant response rating” value (morningglory; [7]) was 8. The “Redroot pigweed plant response rating” value (pigweed; [1]) was 0, the “Redroot pigweed plant response rating” value (pigweed; [2]) was 8 and the “Plant response rating, Redroot pigweed” value (pigweed; [3]) was 10. The “Redroot pigweed plant response rating” value (pigweed; [4]) was 0, the “Redroot pigweed plant response rating” value (pigweed; [5]) was 1 and the “Redroot pigweed plant response rating” value (pigweed; [6]) was 2. The “Plant response rating (0 to 10; 0 is no effect, 10 is complete control), Redroot pigweed” value (pigweed; Rate 250 g/ha, Postemergence) was 3, the “Redroot pigweed plant response rating” value (pigweed; [7]) was 4 and the “Rape plant response rating” value (rape; [1]) was 1. For the same molecule, the “Rape plant response rating” value (rape; [2]) was 8, the “Plant response rating, Rape” value (rape; [3]) was 8 and the “Rape plant response rating” value (rape; [4]) was 0. The “Rape plant response rating” value (rape; [5]) was 0, the “Rape plant response rating” value (rape; [6]) was 6 and the “Plant response rating (0 to 10; 0 is no effect, 10 is complete control), Rape” value (rape; Rate 250 g/ha, Postemergence) was 3. The “Rape plant response rating” value (rape; [7]) was 4, the “Soybean plant response rating” value (soybean; [1]) was 0 and the “Soybean plant response rating” value (soybean; [2]) was 0. The “Plant response rating, Soybean” value (soybean; [3]) was 3, the “Soybean plant response rating” value (soybean; [4]) was 5 and the “Soybean plant response rating” value (soybean; [5]) was 5. The “Soybean plant response rating” value (soybean; [6]) was 0, the “Plant response rating (0 to 10; 0 is no effect, 10 is complete control), Soybean” value (soybean; Rate 250 g/ha, Postemergence) was 7 and the “Soybean plant response rating” value (soybean; [7]) was 7. The “Sugarbeets plant response rating” value (sugar beet; [1]) was 5, the “Sugarbeets plant response rating” value (sugar beet; [2]) was 8 and the “Plant response rating, Sugarbeets” value (sugar beet; [3]) was 8. The “Sugarbeets plant response rating” value (sugar beet; [4]) was 0, the “Sugarbeets plant response rating” value (sugar beet; [5]) was 0 and the “Sugarbeets plant response rating” value (sugar beet; [6]) was 6. The “Plant response rating (0 to 10; 0 is no effect, 10 is complete control), Sugarbeets” value (sugar beet; Rate 250 g/ha, Postemergence) was 2, the “Sugarbeets plant response rating” value (sugar beet; [7]) was 2 and the “Velvetleaf plant response rating” value (velvetleaf; [1]) was 1. The “Velvetleaf plant response rating” value (velvetleaf; [2]) was 4, the “Plant response rating, Velvetleaf” value (velvetleaf; [3]) was 8 and the “Velvetleaf plant response rating” value (velvetleaf; [4]) was 0. The “Velvetleaf plant response rating” value (velvetleaf; [5]) was 0, the “Velvetleaf plant response rating” value (velvetleaf; [6]) was 3 and the “Plant response rating (0 to 10; 0 is no effect, 10 is complete control), Velvetleaf” value (velvetleaf; Rate 250 g/ha, Postemergence) was 2. For the same molecule, the “Velvetleaf plant response rating” value (velvetleaf; [7]) was 2, the “Nutsedge plant response rating” value (purple nutsedge; Rate 62 g/ha, scale of 0 to 10 where 0 is no effect and 10 is complete control) was 0 and the “Nutsedge plant response rating” value (purple nutsedge; Rate 125 g/ha, scale 0 to 10) was 0. For the same molecule, the “Plant response rating (0 to 10; 0 is no effect, 10 is complete control), Nutsedge” value (purple nutsedge; Rate 250 g/ha) was 0, the “Nutsedge plant response rating” value (purple nutsedge; Rate 500 g/ha, scale 0 to 10, 0 no effect, 10 complete control) was 0 and the “Rice plant response rating” value (rice; [8]) was 0. The “Rice plant response rating” value (rice; [9]) was 0, the “Rice plant response rating” value (rice; [10]) was 0 and the “Rice plant response rating” value (rice; [11]) was 0. For the same molecule, the “S. Flatsedge plant response rating” value (smallflower flatsedge; [8]) was 0, the “S. Flatsedge plant response rating” value (smallflower flatsedge; [9]) was 0 and the “S. Flatsedge plant response rating” value (smallflower flatsedge; [10]) was 0. For the same molecule, the “S. Flatsedge plant response rating” value (smallflower flatsedge; [11]) was 0, the “Ducksalad plant response rating” value (duck salad; [8]) was 0 and the “Ducksalad plant response rating” value (duck salad; [9]) was 0. The “Ducksalad plant response rating” value (duck salad; [10]) was 0, the “Ducksalad plant response rating” value (duck salad; [11]) was 0 and the “Barnyardgrass plant response rating” value (bamyardgrass; [8]) was 0. The “Barnyardgrass plant response rating” value (bamyardgrass; [9]) was 0, the “Barnyardgrass plant response rating” value (bamyardgrass; [10]) was 2 and the “Barnyardgrass plant response rating” value (bamyardgrass; [11]) was 3.
